Test systems include SF-268 CNS; NCI-H226 lung; UO-31 renal; SNB-19 CNS; KM12 colon; 786-0 renal; NCI-H460 lung; SF-539 CNS; MALME-3M melanoma; HL-60(TB) leukemia.
What all share (experiment): inhibition of tumour cell growth, NCI panel, 48 h

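Cells were grown in 96-well plates and exposed to each compound for 48 hours at five concentrations; endpoints were interpolated linearly between bracketing concentrations, or set to the highest concentration if not reached. GI50 marks 50% less growth. TGI marks complete inhibition of growth.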

In the case of `C(/C=N/NC1=NCCCCN1)=N\NC1=NCCCCN1`, the TGI in the test with SF-268 CNS, with NCI-H226 lung, in the test on UO-31 renal, in the test with SNB-19 CNS, in the test on KM12 colon and with 786-0 renal was more than 100 µM each time. For the same compound, the TGI in the test with NCI-H460 lung, in the test with SF-539 CNS and in the test on MALME-3M melanoma was more than 100 µM throughout.

Turning to `Oc1c(C(Nc2ccccc2Br)c2ccccc2)ccc2cccnc12` (stereo unspecified), the GI50 with SF-268 CNS was 1.7 µM; with UO-31 renal, 1.32 µM; in the test on SNB-19 CNS it was 2.33 µM; in the test with KM12 colon it was 2.47 µM; in the test on 786-0 renal, 2.22 µM; with NCI-H460 lung, 0.722 µM. Also, the GI50 in the test with HL-60(TB) leukemia was 2.34 µM; with SF-539 CNS it was 3.65 µM; in the test on MALME-3M melanoma it was 4.42 µM. The TGI with SF-268 CNS is 17.3 µM; in the test with UO-31 renal, 45.8 µM; in the test on SNB-19 CNS, more than 100 µM; in the test on KM12 colon, more than 100 µM; in the test on 786-0 renal, 6.41 µM; in the test on NCI-H460 lung, 11.7 µM. Moreover, the TGI came out at 6.25 µM in the test on HL-60(TB) leukemia, 13.5 µM in the test on SF-539 CNS and 29.2 µM with MALME-3M melanoma.

As to `C#C[C@]1(O)CC[C@H]2[C@@H]3CC=C4c5sc(Nc6cc(F)ccc6F)nc5CC[C@]4(C)[C@H]3CC[C@@]21C`, the GI50 with SF-268 CNS is 1.53 µM; in the test with UO-31 renal it was 1.14 µM; in the test with SNB-19 CNS it was 1.6 µM; in the test with KM12 colon, 1.97 µM; in the test with 786-0 renal it was 0.415 µM; with NCI-H460 lung it was 1.95 µM. The GI50 in the test on HL-60(TB) leukemia was 2.54 µM; in the test with SF-539 CNS, 0.389 µM; with MALME-3M melanoma, 1.4 µM. Also, the TGI was 3.37 µM in the test on SF-268 CNS; 2.35 µM in the test on UO-31 renal; 3.23 µM with SNB-19 CNS; 4.34 µM with KM12 colon; 1.84 µM in the test on 786-0 renal; 4.14 µM in the test with NCI-H460 lung. Also, the results for the TGI in the test on HL-60(TB) leukemia, in the test with SF-539 CNS and in the test with MALME-3M melanoma were 7.96 µM, 1.74 µM and 2.97 µM, respectively.

Regarding `COc1ccc2c(c1)[n+](=O)c(C(=O)c1cccs1)c(C(F)(F)F)n2[O-]`, the GI50 is 3.94 µM in the test on SF-268 CNS; 9.58 µM with NCI-H226 lung; 1.83 µM in the test with UO-31 renal; 10.7 µM in the test with SNB-19 CNS; 3.96 µM with KM12 colon; 17 µM with 786-0 renal. Besides, the GI50 was 1.68 µM in the test on NCI-H460 lung, 4.04 µM in the test on HL-60(TB) leukemia and 5.1 µM in the test with SF-539 CNS. For the same compound, the TGI is 27.4 µM in the test on SF-268 CNS; more than 50 µM with NCI-H226 lung; 17.6 µM in the test on UO-31 renal; more than 50 µM in the test on SNB-19 CNS; 25.4 µM with KM12 colon; more than 50 µM with 786-0 renal. The TGI in the test on NCI-H460 lung was 13.8 µM; in the test with HL-60(TB) leukemia, more than 50 µM; in the test on SF-539 CNS, 16.2 µM.

Take `O=c1cc(-c2ccccn2)[nH]c2cccc(F)c12`: the TGI in the test on NCI-H226 lung, with UO-31 renal, in the test with SNB-19 CNS, in the test with KM12 colon, in the test with 786-0 renal and in the test with NCI-H460 lung was more than 100 µM throughout. Also, the TGI in the test on HL-60(TB) leukemia and with SF-539 CNS was more than 100 µM throughout.

For `Fc1cccc(F)c1C1SCc2nc3cc(Cl)c(Cl)cc3n21` (stereo unspecified), the TGI in the test with SF-268 CNS, in the test with UO-31 renal, with SNB-19 CNS, in the test with KM12 colon, in the test on 786-0 renal and with NCI-H460 lung was more than 100 µM throughout. Further, the TGI in the test on HL-60(TB) leukemia, with SF-539 CNS and in the test with MALME-3M melanoma was more than 100 µM throughout.

As for `Cc1cc2c(c(C(N)=O)c1C)-c1cccc(F)c1C2=O`, the TGI in the test with SF-268 CNS, with UO-31 renal, in the test on SNB-19 CNS, in the test with KM12 colon, with 786-0 renal and with NCI-H460 lung was more than 100 µM throughout. In addition, the TGI in the test on SF-539 CNS and in the test with MALME-3M melanoma was more than 100 µM in each case.

With `CN1C(=O)c2ccc3ccccc3c2C1=O`, the TGI in the test on SF-268 CNS, in the test on NCI-H226 lung, with UO-31 renal, in the test on SNB-19 CNS, with KM12 colon and in the test on 786-0 renal was more than 100 µM each time. Also, the TGI in the test with NCI-H460 lung, in the test with HL-60(TB) leukemia and with SF-539 CNS was more than 100 µM throughout.

`Cc1cn2c(/C=C3/C(=O)Nc4c3ccc3ccccc43)c(C(F)(F)F)nc2s1`: the GI50 was 3.22 µM with SF-268 CNS; 17.9 µM with NCI-H226 lung; 1.97 µM in the test with UO-31 renal; 2.97 µM in the test on SNB-19 CNS; 0.493 µM with KM12 colon; 1.49 µM in the test with 786-0 renal. The figures for the GI50 in the test with NCI-H460 lung, in the test on HL-60(TB) leukemia and in the test on SF-539 CNS were 0.501 µM, 0.54 µM and 1.14 µM, respectively. In addition, the TGI was more than 100 µM in the test with SF-268 CNS; more than 100 µM in the test with NCI-H226 lung; more than 100 µM with UO-31 renal; more than 100 µM in the test on SNB-19 CNS; 38.5 µM with KM12 colon; 39 µM in the test with 786-0 renal. In addition, the figures for the TGI with NCI-H460 lung, in the test with HL-60(TB) leukemia and in the test on SF-539 CNS were 25.3 µM, 32.4 µM and 5.07 µM, respectively.

Consider `COc1ccc2c(c1)/C(=C\c1ccncc1)C(=O)N2`, for which the GI50 in the test on SF-268 CNS is 5.07 µM; with UO-31 renal, 6.73 µM; in the test on SNB-19 CNS it was 19.4 µM; with KM12 colon, 4.83 µM; with 786-0 renal, 12.5 µM; in the test on NCI-H460 lung it was 6.68 µM. Besides, the values for the GI50 in the test with HL-60(TB) leukemia and in the test on SF-539 CNS were 6.8 µM and 2.98 µM, respectively. Also, the TGI with SF-268 CNS was 37.3 µM; in the test with UO-31 renal it was 19.3 µM; in the test with SNB-19 CNS, 61.1 µM; in the test on KM12 colon, 24 µM; in the test with 786-0 renal, 29.3 µM; in the test on NCI-H460 lung, more than 100 µM. Also, the figures for the TGI in the test with HL-60(TB) leukemia and in the test on SF-539 CNS were more than 100 µM and 11.4 µM, respectively.

The values above are taken from PubChem BioAssay (NCI).
